Target: Free fatty acid receptor 1 (Homo sapiens, UniProt O14842)
Assay: Modulation activity at human GPR40 expressed in HEK293 cells by IP-1 detection based HTRF assay

Chain of Free fatty acid receptor 1 (O14842 whole entry): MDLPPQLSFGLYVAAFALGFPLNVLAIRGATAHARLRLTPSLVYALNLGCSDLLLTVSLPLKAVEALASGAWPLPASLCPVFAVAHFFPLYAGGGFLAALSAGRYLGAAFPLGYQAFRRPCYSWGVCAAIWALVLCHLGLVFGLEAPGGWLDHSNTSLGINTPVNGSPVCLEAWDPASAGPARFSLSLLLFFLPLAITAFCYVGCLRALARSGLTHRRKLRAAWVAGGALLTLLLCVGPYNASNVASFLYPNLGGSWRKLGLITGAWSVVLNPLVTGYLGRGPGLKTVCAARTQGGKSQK

EC50: 560 nM
Compound: Cc1ccccc1Oc1ccc(N2N=C(C#N)CC2CC(=O)O)cc1 (stereo unspecified)

From BindingDB's records for doi:10.1021/ml5002757 (Therachem Research Medilab (India), 2014)
